Patent US20260248791A1, “METHODS FOR TREATING DERMATOMYOSITIS WITH BREPOCITINIB” (priority 2023, published 2026)

Assays:
[1] = system: cytokine signaling pathways that engage TYK2 and/or JAK1, including IFNα, IFNg, IL-12, and IL-23; test: Cytokine signaling in human whole blood; assay type: cell-based; conditions: IL-12, IL-23
[2] = system: Human skeletal muscle myoblasts (HSMM) differentiated into myotubes; test: IFN-I induced myotube damage (myosin 4 surface area); assay type: cell-based; conditions: for mean myosin surface area: 48 hours IFN-I
Experimental: (§1) Timeline for Brepocitinib efficacy evaluation for IFN-I induced pathological changes characteristic of DM in vitro. As shown in the schematic image of FIG. 1, human skeletal muscle myoblasts (HSMM) were cultured and differentiated into myotubes then treated with vehicle control or IFN-I (recombinant Human IFN alpha A and Human IFN alpha D) to induce cellular damage. Myotubes were also preincubated for 1 hour with Brepocitinib (1 μM or 130 nM, the latter is equivalent to the average free plasma concentration after administration of 30 mg once-daily) prior to IFN-I treatment. Immunofluorescence staining followed by image analysis to determine myosin 4 surface area were conducted after 48 hours of IFN-I treatment. Human dermal microvascular endothelial cells (HMEC-1) were cultured and, once vascular networks were established, cells were treated with IFN-I or vehicle control. Cells were also preincubated for 1 hour with Brepocitinib. Under light microscopy, 9 hours after treatment, the number of nodes, master segment length, and total mesh area were analyzed.
Human skeletal muscle myoblasts (Lonza, CC-2580) were cultured in SkGM™-2 media (Lonza, CC-3245) and sub-cultured using ReagentPack™ Subculture Reagents (Lonza, CC-5034). They were then differentiated into myotubes by culturing in differentiation medium [DMEM/F12+2% Horse serum (Thermofisher, 16050122)] for 3-5 days until most of the myoblast cells differentiated into multinucleated myotubes. The myotubes were then preincubated with vehicle or Brepocitinib prior to type I interferon (R&D, 11200-2) exposure at concentrations (FIG. 7). After 48 hours of treatment, cells were fixed and stained with Myosin 4 Monoclonal antibody (MF20; Thermofisher, 14-6503-82) and Hoechst for nuclei visualization. The effect on total myotube surface area was evaluated via fluorescent image analysis. […] The effect of type I IFN exposure±Brepocitinib treatment on the number of nodes, master segment length, and total mesh area was evaluated by taking bright-field images every 16 hours.

[3] = system: Human dermal microvascular endothelial cells (HMEC-1); test: IFN-I induced endothelial cell damage (vascular network); assay type: cell-based; conditions: Brepocitinib preincubation
Experimental: as §1, with “Human dermal microvascular endothelial cells (HMEC-1) were cultured and, once vascular networks were established, cells were treated with IFN-I or vehicle control. Cells were also preincubated for 1 hour with Brepocitinib.” left out
Human skeletal muscle myoblasts (Lonza, CC-2580) were cultured in SkGM™-2 media (Lonza, CC-3245) and sub-cultured using ReagentPack™ Subculture Reagents (Lonza, CC-5034). […] The effect on total myotube surface area was evaluated via fluorescent image analysis. […] The effect of type I IFN exposure±Brepocitinib treatment on the number of nodes, master segment length, and total mesh area was evaluated by taking bright-field images every 16 hours.

[4] = Dose-response across Phase 2 studies; assay type: in vivo, human; conditions: normalized responder rate vs average daily dose across Phase 2 studies
[5] = system: psoriatic arthritis; test: Phase 2 study in psoriatic arthritis (ACR20); assay type: in vivo, human; conditions: 30 mg; after 4 weeks; psoriatic arthritis patients
Text: (§2) As part of the clinical development program for oral Brepocitinib, a number of Phase 1 and Phase 2 studies have been completed or have a report in preparation. […] The multiple autoimmune diseases for which there is observed clinical efficacy data for Brepocitinib have mechanistic pathway similarities to DM. For example, psoriasis is driven by IL-17, which is downstream of IL-12 and IL-23 signaling via TYK2 and/or JAK1, and alopecia areata is characterized by excessive activity of IFN-γ, a type II interferon which also signals via JAK1. Of note, dose dependent reductions in IP-10 (CXCL10), an IFN-γ inducible gene, have been observed in Brepocitinib clinical studies, separating from placebo at doses ≥10 mg QD. Importantly, in these phase 2 studies, clinical response with Brepocitinib treatment rapidly separates from placebo. For example, in the phase 2 study assessing Brepocitinib's efficacy in psoriatic arthritis, Brepocitinib 30 mg achieved a 52% ACR20 response rate after 4 weeks compared to a 19% response rate in placebo patients.

[6] = system: IP-10 (CXCL10); test: IP-10 reduction in clinical studies; assay type: in vivo, human; conditions: dose dependent reductions in clinical studies
Text: as §2

[7] = system: psoriatic arthritis, plaque psoriasis, ulcerative colitis, alopecia areata, and hidradenitis suppurativa; test: 5 completed Phase 2 placebo-controlled studies; assay type: in vivo, human; conditions: each of 5 placebo-controlled Phase 2 studies
Text: Primary efficacy endpoints with Brepocitinib. […] These clinical data, along with the overlapping pathogenic cytokine profile, support the rationale for evaluating Brepocitinib in DM.

[8] = Solubility across physiological pH range; assay type: physicochemical
[9] = Dissolution from immediate-release tablets; assay type: physicochemical; conditions: in 30 minutes; 30 mg tablet, pH 6.8 phosphate buffer, USP Apparatus II, 75 rpm
Experimental: Dissolution: […] An illustrative dissolution profile for a prototype 30 mg tablet in pH 6.8 phosphate buffer using USP Apparatus II, 75 rpm is shown in FIG. 6. […] The final to-be-marketed product will be tested in all three-pH media for confirmation of rapid dissolution. The to-be-marketed product will be developed at a commercial manufacturing site that is to be decided and will be different from that used to manufacture the current clinical trial material.

[10] = Broad off-target panel; conditions: functional assays, ligand binding, enzyme activity
[11] = system: transgenic (Tg) mice; test: 6-month carcinogenicity study in Tg mice; assay type: in vivo; conditions: 6-month Tg mouse study
Text: (§3) Immunotoxicity and phototoxicity studies have also been conducted. Carcinogenicity studies in Tg mice (6 month) and rats (2 year) have been completed. […] Brepocitinib-related findings consistent with the mechanism of action (lower thymus weight and cellularity, infection) or not relevant to humans (exacerbation of chronic progressive nephropathy in the kidney) were also observed. Fertility studies in rats have been completed.

[12] = system: male rat; test: Fertility study in rats; assay type: in vivo; conditions: 55 mg/kg/day
Text: as §3

[13] = system: cytokine-induced phosphorylation of STATs in human PBMCs and whole blood; test: Cytokine-induced STAT phosphorylation; assay type: cell-based
Text: (§4) Pharmacology. Brepocitinib inhibits various TYK2- and JAK1-dependent functions in different cell types such as cytokine-induced phosphorylation of signal transducer and activator transcriptions (STATs) in human peripheral blood mononuclear cells (PBMCs) and whole blood; differentiation of T helper (Th) 1, Th17, and B cells, interleukin (IL)-12-induced IFNγ production in human PBMCs; and IFN-1 gene signature induced by immune complexes in human PBMCs.

[14] = system: T helper (Th) 1, Th17, and B cells; test: Differentiation of Th1, Th17 and B cells; assay type: cell-based
Text: as §4

[15] = system: human PBMCs; test: IL-12-induced IFNγ production; assay type: cell-based
Text: as §4

[16] = system: human PBMCs; test: IFN-1 gene signature induced by immune complexes; assay type: cell-based
Text: as §4

[17] = system: rat adjuvant-induced arthritis; test: Rat adjuvant-induced arthritis disease model; conditions: in vivo
Text: as §4

[18] = Tolerability in clinical studies to date; assay type: in vivo, human
Text: Brepocitinib is being evaluated in a double-blind, randomized, placebo-controlled Phase 3 study in DM (NCT0543726; VALOR Study). With a planned enrollment of 225 subjects, the VALOR Study is the largest well-controlled trial in DM to date. Adult patients with definite or probable idiopathic inflammatory myopathy (IIM), who meet the subclassification criteria for DM, have both muscle and skin disease involvement (classic DM), and are receiving (or are not responsive to or are intolerant to) corticosteroids and/or immunomodulatory/immunosuppressive therapies are eligible to enroll. The primary endpoint is the total improvement score (TIS) at week 52. The TIS is a composite endpoint based on the following six CSM scores: the Physician Global Disease Activity, the Patient Global Disease Activity, the Health Assessment Questionnaire, MMT-8, Extramuscular Disease Activity, and muscle enzymes. To evaluate the steroid-sparing effect of Brepocitinib, participants using glucocorticoids at baseline must taper to an oral glucocorticoid dose of prednisone≤5 mg/day (or equivalent) by week 36.

[19] = human
[20] = human, plasma, 2 μM
[21] = system: CYP3A4/5; conditions: human
[22] = molecular target: CYP1A2 (Homo sapiens, UniProt P05177)
[23] = clinical; conditions: human, in vivo
[24] = molecular target: P-glycoprotein (P-gp; MDR1; ABCB1) (Homo sapiens, UniProt P08183); test: P-glycoprotein substrate status
[25] = molecular target: P-gp (Homo sapiens, UniProt P08183); test: In vitro transporter inhibition, P-gp
[26] = molecular target: breast cancer resistance protein (BCRP) (Homo sapiens, UniProt Q9UNQ0); test: In vitro transporter inhibition, BCRP
[27] = molecular target: organic cation transporter (OCT) 1 (Homo sapiens, UniProt O15245); test: In vitro transporter inhibition, OCT1
[28] = molecular target: OCT2 (Homo sapiens, UniProt O15244); test: In vitro transporter inhibition, OCT2
[29] = system: rats; test: Chronic oral toxicology study in rats; conditions: end of study exposure
[30] = molecular target: multidrug and toxin extrusion (MATE) 1 (Homo sapiens, UniProt Q96FL8); test: In vitro transporter inhibition, MATE1
[31] = system: cynomolgus monkeys; test: Chronic oral toxicology study in monkeys; conditions: end of study exposure
[32] = Cardiovascular safety pharmacology studies; conditions: oral administration
[33] = In vitro profiling for metabolic drug-drug interactions; conditions: direct inhibition and induction mechanisms

Sequence of CYP1A2 (P05177 whole entry): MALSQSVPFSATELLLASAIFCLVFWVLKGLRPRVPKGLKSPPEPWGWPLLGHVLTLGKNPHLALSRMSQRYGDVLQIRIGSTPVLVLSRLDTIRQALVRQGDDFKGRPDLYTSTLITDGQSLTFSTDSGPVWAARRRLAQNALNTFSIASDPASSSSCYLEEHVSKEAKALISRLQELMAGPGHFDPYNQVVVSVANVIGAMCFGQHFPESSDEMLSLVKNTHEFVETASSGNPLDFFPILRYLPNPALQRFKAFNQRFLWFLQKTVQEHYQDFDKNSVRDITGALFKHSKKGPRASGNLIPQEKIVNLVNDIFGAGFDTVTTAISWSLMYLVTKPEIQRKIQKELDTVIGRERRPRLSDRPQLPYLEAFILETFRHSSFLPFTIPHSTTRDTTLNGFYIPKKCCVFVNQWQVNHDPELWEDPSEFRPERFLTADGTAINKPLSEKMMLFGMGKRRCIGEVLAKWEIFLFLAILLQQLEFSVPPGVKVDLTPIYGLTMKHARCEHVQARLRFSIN
Sequence of P-gp (P08183 whole entry): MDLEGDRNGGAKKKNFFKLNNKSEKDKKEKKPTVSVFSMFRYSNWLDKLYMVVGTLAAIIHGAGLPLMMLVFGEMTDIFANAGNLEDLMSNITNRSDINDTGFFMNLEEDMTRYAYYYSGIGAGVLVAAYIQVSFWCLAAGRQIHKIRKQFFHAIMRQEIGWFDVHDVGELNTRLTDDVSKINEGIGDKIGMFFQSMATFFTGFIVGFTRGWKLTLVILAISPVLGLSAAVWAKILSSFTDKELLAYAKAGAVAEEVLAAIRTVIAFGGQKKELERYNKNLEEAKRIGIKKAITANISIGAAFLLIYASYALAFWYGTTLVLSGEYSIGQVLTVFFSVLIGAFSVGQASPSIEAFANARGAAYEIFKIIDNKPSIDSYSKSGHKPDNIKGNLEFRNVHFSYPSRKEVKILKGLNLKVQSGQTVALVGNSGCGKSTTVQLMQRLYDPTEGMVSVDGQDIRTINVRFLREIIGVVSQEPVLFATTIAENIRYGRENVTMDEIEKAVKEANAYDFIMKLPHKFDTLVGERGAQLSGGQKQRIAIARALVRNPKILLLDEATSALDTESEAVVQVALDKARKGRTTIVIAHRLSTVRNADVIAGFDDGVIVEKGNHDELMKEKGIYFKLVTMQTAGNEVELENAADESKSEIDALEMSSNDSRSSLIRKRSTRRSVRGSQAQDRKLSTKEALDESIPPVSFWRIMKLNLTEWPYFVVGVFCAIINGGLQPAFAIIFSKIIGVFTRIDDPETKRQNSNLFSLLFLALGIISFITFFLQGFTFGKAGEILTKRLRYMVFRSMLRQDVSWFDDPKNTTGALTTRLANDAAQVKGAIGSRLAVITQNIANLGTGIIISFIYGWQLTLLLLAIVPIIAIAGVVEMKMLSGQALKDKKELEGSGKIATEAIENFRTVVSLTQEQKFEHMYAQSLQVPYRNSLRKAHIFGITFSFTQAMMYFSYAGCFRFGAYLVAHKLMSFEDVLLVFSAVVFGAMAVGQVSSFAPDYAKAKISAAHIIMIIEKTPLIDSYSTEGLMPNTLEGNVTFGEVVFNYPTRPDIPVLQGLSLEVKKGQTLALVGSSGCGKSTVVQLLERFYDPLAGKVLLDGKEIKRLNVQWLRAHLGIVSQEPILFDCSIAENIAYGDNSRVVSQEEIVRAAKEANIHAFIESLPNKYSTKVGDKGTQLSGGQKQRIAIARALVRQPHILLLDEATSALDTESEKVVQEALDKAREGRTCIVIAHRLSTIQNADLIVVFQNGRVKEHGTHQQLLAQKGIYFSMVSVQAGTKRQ
Sequence of P-glycoprotein (P-gp; MDR1; ABCB1) (P08183 whole entry): as above
Sequence of multidrug and toxin extrusion (MATE) 1 (Q96FL8 whole entry): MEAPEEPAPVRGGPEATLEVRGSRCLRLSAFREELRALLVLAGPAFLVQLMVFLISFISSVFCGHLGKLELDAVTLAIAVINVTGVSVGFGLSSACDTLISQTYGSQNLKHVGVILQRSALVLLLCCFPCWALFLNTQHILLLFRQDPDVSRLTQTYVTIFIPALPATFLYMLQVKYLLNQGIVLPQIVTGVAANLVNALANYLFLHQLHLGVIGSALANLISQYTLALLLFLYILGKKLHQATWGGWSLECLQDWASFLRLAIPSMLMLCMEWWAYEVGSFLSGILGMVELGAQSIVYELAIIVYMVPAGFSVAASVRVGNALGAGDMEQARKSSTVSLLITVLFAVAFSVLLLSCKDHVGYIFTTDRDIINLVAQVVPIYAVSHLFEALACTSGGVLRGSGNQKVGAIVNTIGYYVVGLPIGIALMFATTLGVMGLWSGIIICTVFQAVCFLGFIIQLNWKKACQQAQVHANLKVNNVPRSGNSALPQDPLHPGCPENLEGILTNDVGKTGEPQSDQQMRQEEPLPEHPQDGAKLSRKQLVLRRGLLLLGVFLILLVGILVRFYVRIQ
Sequence of OCT2 (O15244 whole entry): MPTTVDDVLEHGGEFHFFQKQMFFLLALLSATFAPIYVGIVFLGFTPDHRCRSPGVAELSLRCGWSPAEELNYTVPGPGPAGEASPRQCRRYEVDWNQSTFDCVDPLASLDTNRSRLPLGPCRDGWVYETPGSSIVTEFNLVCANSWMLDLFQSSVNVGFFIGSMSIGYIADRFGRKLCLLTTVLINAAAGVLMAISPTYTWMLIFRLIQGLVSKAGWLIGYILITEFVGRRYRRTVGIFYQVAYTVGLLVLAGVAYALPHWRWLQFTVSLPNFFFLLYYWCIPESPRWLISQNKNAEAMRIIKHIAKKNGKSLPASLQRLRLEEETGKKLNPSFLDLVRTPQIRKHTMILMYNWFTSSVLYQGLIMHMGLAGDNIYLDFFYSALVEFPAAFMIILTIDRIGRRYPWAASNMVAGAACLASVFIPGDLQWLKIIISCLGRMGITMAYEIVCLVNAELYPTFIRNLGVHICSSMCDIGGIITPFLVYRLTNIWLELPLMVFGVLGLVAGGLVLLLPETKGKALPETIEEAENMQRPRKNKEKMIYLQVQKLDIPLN
Sequence of breast cancer resistance protein (BCRP) (Q9UNQ0 whole entry): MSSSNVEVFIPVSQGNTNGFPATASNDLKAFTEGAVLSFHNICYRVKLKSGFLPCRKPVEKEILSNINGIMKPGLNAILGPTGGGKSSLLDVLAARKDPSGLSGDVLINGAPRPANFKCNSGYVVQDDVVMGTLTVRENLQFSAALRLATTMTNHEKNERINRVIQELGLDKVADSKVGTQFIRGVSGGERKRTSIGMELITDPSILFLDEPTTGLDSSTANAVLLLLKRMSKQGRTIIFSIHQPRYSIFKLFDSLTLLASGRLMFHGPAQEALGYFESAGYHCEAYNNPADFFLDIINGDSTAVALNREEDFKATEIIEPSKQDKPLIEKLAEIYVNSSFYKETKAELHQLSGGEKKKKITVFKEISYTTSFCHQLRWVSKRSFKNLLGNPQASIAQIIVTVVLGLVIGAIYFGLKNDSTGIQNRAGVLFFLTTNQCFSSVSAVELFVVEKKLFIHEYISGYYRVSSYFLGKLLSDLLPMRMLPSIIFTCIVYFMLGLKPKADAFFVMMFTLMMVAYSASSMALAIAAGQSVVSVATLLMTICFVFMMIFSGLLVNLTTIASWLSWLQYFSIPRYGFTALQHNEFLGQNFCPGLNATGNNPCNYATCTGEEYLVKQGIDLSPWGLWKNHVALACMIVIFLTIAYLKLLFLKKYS

SMILES: Cn1cc(Nc2nccc(N3C[C@H]4CC[C@@H](C3)N4C(=O)[C@@H]3CC3(F)F)n2)cn1 [Brepocitinib, [(1S)-2,2-difluorocyclo-propyl][(1R,5S)-3-{2-[(1-methyl-1H-pyrazol-4-yl)amino]pyrimidin-4-yl}-3,8-diazabicyclo[3.2.1]oct-8-yl]methanone]
- Inhibition of cytokine signaling pathways implicated in DM [1]: inhibited
- mean myosin surface area ([2]; 130 nM preincubation 1 hour): 94.1 % of the vehicle control
- mean myosin surface area ([2]; 1 μM preincubation 1 hour): 100 % of the vehicle control
- IFN-I induced damage in myotubes ([2]; Brepocitinib preincubation, 130 nM and 1 μM): almost completely prevented
- IFN-I induced damage in endothelial cells [3]: almost completely prevented
- dose resulting in 50% maximal response [4]: 15 mg QD
- ACR20 response rate [5]: 52%
- doses at which IP-10 (CXCL10) reduction separates from placebo [6]: ≥ 10 mg QD
- Primary efficacy outcome in Phase 2 studies [7]: clinically meaningful and statistically significant results
- Solubility in 250 mL of the media [8]: fully soluble
- Solubility ([8]; across the physiological pH range): highly soluble
- dissolution from immediate-release (IR) tablets [9]: > 85%
- off-target pharmacology potential [10]: low potential for off-target pharmacology
- neoplastic findings [11]: No Brepocitinib-related neoplastic findings
- effects on male rat fertility ([12]; highest dose tested): No adverse effects
- margin to clinical exposures at highest dose tested ([12]; male rat fertility): > 50 fold
- cytokine-induced phosphorylation of STATs [13]: inhibits
- differentiation of Th1, Th17, and B cells [14]: inhibits
- IL-12-induced IFNγ production [15]: inhibits
- IFN-1 gene signature induced by immune complexes [16]: inhibits
- effect in rat adjuvant-induced arthritis [17]: anti-inflammatory effects
- tolerability [18]: generally well-tolerated
- radiolabeled dose recovered as unchanged Brepocitinib in the urine (human, in vivo): Approximately 8%
- radiolabeled dose recovered as Brepocitinib metabolites in the urine (human, in vivo, po): Approximately 80%
- Permeability (not told): highly permeable
- dose recovered in urine ([19]; in vivo): ≤ 16%
- effect of food (high-fat meal) on absorption ([19]; in vivo): does not have a clinically relevant effect on the extent of absorption
- fraction absorbed ([19]; in vivo): approximately 100%
- increase of AUC(0-∞) and Cmax with dose ([19]; in vivo): approximately dose-proportional
- time to steady state ([19]; in vivo): ≤ 8 days
- Permeability class according to the BCS criteria ([19]; not told, po): high-permeability compound
- fraction of unbound drug [20]: 0.609
- in vitro fraction metabolized [21]: 0.77
- in vitro fraction metabolized [22]: 0.14
- half-life [23]: 4 to 8 h
- bioavailability ([23]; absolute bioavailability): ~75%
- bioavailability ([23]; bioavailability of tablets relative to solution): ~96%
- P-gp substrate status [24]: substrate
- In vitro inhibition of P-gp [25]: inhibition
- In vitro inhibition of BCRP [26]: inhibition
- In vitro inhibition of OCT1 [27]: inhibition
- In vitro inhibition of OCT2 [28]: inhibition
- AUC exposure margin, NOAEL to clinical exposure of 30 mg QD [29]: 54 fold
- In vitro inhibition of MATE1 [30]: inhibition
- AUC exposure margin, NOAEL to clinical exposure of 30 mg QD [31]: 7.8 fold
- cardiovascular safety pharmacology findings [32]: effects on blood pressure, heartrate, and corrected QT interval (QTc) interval were observed
- potential to be a perpetrator of metabolic drug-drug interactions [33]: low potential
